Legend:
[1] = molecular target: T1, KIT(D816V) (Homo sapiens, UniProt P10721, D816V); experiment: KINOMEscan at 1 μM, KIT(D816V); type: binding; details: 1000 nM, read-out: Percent Control
T1 construct: purchased Eurofins DiscoverX KINOMEscan
Source text: (§1) Supplement cells-12-00287-s001.zip/File S2. KinomeScan data for the CAMKK2 probe and negative control.xlsx, sheet "SGC-CAMKK2-1N" | column: Percent Control

[2] = molecular target: T2, TRPM6 (Homo sapiens, UniProt Q9BX84); experiment: KINOMEscan at 1 μM, TRPM6; type: binding; details: 1000 nM, read-out: Percent Control
T2 construct: purchased Eurofins DiscoverX KINOMEscan
Source text: as §1

[3] = molecular target: T3, EPHA1 (Homo sapiens, UniProt P21709); experiment: KINOMEscan at 1 μM, EPHA1; type: binding; details: 1000 nM, read-out: Percent Control
T3 construct: purchased Eurofins DiscoverX KINOMEscan
Source text: as §1

[4] = molecular target: T4, CLK2 (Homo sapiens, UniProt P49760); experiment: KINOMEscan at 1 μM, CLK2; type: binding; details: 1000 nM, read-out: Percent Control
T4 construct: purchased Eurofins DiscoverX KINOMEscan
T4 sequence (P49760 whole entry): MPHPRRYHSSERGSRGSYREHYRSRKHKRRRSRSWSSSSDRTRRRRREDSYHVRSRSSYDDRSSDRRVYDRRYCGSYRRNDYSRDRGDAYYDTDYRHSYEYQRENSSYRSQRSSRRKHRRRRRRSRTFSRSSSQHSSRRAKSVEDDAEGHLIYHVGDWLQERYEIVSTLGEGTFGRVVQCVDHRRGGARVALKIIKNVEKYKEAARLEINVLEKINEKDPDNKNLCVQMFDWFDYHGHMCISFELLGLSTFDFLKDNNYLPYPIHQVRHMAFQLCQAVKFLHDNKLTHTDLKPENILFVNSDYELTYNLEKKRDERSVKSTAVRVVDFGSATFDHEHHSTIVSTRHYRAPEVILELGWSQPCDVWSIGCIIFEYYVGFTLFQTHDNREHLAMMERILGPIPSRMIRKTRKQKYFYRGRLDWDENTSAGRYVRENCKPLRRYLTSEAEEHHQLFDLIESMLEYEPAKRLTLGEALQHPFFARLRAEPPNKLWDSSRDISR
Source text: as §1

[5] = molecular target: T5, GRK3 (Homo sapiens, UniProt P35626); experiment: KINOMEscan at 1 μM, GRK3; type: binding; details: 1000 nM, read-out: Percent Control
T5 construct: purchased Eurofins DiscoverX KINOMEscan
Source text: as §1

[6] = molecular target: T6, PRKG2 (Homo sapiens, UniProt Q13237); experiment: KINOMEscan at 1 μM, PRKG2; type: binding; details: 1000 nM, read-out: Percent Control
T6 construct: purchased Eurofins DiscoverX KINOMEscan
Source text: as §1

[7] = molecular target: T7, ERK5 (Homo sapiens, UniProt Q13164); experiment: KINOMEscan at 1 μM, ERK5; type: binding; details: 1000 nM, read-out: Percent Control
T7 construct: purchased Eurofins DiscoverX KINOMEscan
Source text: as §1

[8] = molecular target: T8, LZK (Homo sapiens, UniProt O43283); experiment: KINOMEscan at 1 μM, LZK; type: binding; details: 1000 nM, read-out: Percent Control
T8 construct: purchased Eurofins DiscoverX KINOMEscan
Source text: as §1

[9] = molecular target: T9, PIK3CA(E542K) (Homo sapiens, UniProt P42336, E542K); experiment: KINOMEscan at 1 μM, PIK3CA(E542K); type: binding; details: 1000 nM, read-out: Percent Control
T9 construct: purchased Eurofins DiscoverX KINOMEscan
Source text: as §1

[10] = molecular target: T10, BRAF (Homo sapiens, UniProt P15056); experiment: KINOMEscan at 1 μM, BRAF; type: binding; details: 1000 nM, read-out: Percent Control
T10 construct: purchased Eurofins DiscoverX KINOMEscan
Source text: as §1

[11] = molecular target: T11, CLK3 (Homo sapiens, UniProt P49761); experiment: KINOMEscan at 1 μM, CLK3; type: binding; details: 1000 nM, read-out: Percent Control
T11 construct: purchased Eurofins DiscoverX KINOMEscan
Source text: as §1

[12] = molecular target: T12, MEK2 (Homo sapiens, UniProt P36507); experiment: KINOMEscan at 1 μM, MEK2; type: binding; details: 1000 nM, read-out: Percent Control
T12 construct: purchased Eurofins DiscoverX KINOMEscan
Source text: as §1

[13] = molecular target: T13, PHKG1 (Homo sapiens, UniProt Q16816); experiment: KINOMEscan at 1 μM, PHKG1; type: binding; details: 1000 nM, read-out: Percent Control
T13 construct: purchased Eurofins DiscoverX KINOMEscan
Source text: as §1

[14] = molecular target: T14, AXL (Homo sapiens, UniProt P30530); experiment: KINOMEscan at 1 μM, AXL; type: binding; details: 1000 nM, read-out: Percent Control
T14 construct: purchased Eurofins DiscoverX KINOMEscan
Source text: as §1

[15] = molecular target: T15, EPHA5 (Homo sapiens, UniProt P54756); experiment: KINOMEscan binding assay at 1 μM, EPHA5; details: Compound Concentration 1000 nM; read-out: Percent Control
T15 construct: purchased Eurofins DiscoverX KINOMEscan
T15 sequence (P54756 25-1037): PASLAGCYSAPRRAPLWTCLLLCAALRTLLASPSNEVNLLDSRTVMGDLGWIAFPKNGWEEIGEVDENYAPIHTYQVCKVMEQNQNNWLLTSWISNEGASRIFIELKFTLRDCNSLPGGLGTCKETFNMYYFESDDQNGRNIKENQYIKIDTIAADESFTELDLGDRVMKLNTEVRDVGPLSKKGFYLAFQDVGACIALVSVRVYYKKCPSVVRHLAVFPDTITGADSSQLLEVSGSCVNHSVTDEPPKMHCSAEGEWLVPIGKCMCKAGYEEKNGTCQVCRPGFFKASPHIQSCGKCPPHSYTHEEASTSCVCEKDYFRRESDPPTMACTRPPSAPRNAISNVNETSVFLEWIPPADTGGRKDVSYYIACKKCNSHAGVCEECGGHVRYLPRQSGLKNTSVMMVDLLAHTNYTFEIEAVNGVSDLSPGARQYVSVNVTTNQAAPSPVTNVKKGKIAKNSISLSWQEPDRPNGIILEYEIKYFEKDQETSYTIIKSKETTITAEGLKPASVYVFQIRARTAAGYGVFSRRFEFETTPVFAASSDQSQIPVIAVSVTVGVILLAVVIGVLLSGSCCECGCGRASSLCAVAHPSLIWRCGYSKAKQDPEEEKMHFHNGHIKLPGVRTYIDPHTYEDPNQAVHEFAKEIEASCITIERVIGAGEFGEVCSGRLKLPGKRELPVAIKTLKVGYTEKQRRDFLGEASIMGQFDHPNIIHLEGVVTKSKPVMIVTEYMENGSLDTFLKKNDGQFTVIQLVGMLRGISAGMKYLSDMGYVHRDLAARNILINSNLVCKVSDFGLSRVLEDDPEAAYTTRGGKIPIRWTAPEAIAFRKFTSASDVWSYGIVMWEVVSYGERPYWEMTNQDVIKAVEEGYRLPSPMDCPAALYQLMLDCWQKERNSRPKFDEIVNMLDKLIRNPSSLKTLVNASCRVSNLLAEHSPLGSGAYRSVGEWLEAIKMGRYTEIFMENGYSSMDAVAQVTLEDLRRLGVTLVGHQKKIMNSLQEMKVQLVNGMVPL
Source text: as §1

[16] = molecular target: T16, KIT(V559D,T670I) (Homo sapiens, UniProt P10721, T670I/V559D); experiment: KINOMEscan binding assay at 1 μM, KIT(V559D,T670I); details: Compound Concentration 1000 nM; read-out: Percent Control
T16 construct: purchased Eurofins DiscoverX KINOMEscan
T16 sequence (P10721 26-976 V559D/T670I): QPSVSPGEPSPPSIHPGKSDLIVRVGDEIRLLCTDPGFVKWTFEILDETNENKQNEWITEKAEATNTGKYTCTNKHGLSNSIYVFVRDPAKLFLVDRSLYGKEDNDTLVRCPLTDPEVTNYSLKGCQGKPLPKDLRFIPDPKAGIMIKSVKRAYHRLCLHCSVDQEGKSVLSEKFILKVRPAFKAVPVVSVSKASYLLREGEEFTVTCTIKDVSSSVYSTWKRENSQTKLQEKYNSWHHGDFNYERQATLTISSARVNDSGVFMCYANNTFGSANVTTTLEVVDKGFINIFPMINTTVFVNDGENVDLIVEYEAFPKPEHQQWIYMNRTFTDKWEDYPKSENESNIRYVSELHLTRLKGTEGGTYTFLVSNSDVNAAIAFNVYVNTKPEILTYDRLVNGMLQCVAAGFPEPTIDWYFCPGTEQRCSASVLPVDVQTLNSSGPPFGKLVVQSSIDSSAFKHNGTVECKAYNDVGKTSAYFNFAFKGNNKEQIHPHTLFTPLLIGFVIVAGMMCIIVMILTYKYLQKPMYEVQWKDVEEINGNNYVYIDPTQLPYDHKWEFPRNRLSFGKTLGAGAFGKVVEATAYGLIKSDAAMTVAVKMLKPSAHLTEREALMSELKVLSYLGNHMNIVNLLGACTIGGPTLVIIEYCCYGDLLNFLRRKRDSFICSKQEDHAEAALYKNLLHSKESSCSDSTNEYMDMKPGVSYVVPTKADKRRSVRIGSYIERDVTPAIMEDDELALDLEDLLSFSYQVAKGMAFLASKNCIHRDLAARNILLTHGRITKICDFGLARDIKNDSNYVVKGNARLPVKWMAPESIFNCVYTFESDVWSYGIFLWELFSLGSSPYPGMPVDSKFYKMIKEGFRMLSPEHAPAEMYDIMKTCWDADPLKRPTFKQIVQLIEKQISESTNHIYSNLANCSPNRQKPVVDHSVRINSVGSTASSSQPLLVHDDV
Source text: as §1

[17] = molecular target: T17, EGFR(L861Q) (Homo sapiens, UniProt P00533, L861Q); experiment: KINOMEscan 1 μM, EGFR(L861Q); type: binding; details: 1000 nM; Entrez EGFR; read-out: Percent Control
T17 construct: purchased Eurofins DiscoverX KINOMEscan
Source text: (§2) Supplement cells-12-00287-s001.zip/File S2. KinomeScan data for the CAMKK2 probe and negative control.xlsx, sheet "SGC-CAMKK2-1" | column: Percent Control

[18] = molecular target: T18, PIK3CG (Homo sapiens, UniProt P48736); experiment: KINOMEscan 1 μM, PIK3CG; type: binding; details: 1000 nM; Entrez PIK3CG; read-out: Percent Control
T18 construct: purchased Eurofins DiscoverX KINOMEscan
Source text: as §2

[19] = molecular target: T19, EGFR(L858R) (Homo sapiens, UniProt P00533, L858R); experiment: KINOMEscan 1 μM, EGFR(L858R); type: binding; details: 1000 nM; Entrez EGFR; read-out: Percent Control
T19 construct: purchased Eurofins DiscoverX KINOMEscan
Source text: as §2

[20] = molecular target: T20, p38-gamma (Homo sapiens, UniProt P53778); experiment: KINOMEscan 1 μM, p38-gamma; type: binding; details: 1000 nM; Entrez MAPK12; read-out: Percent Control
T20 construct: purchased Eurofins DiscoverX KINOMEscan
T20 sequence (P53778 whole entry): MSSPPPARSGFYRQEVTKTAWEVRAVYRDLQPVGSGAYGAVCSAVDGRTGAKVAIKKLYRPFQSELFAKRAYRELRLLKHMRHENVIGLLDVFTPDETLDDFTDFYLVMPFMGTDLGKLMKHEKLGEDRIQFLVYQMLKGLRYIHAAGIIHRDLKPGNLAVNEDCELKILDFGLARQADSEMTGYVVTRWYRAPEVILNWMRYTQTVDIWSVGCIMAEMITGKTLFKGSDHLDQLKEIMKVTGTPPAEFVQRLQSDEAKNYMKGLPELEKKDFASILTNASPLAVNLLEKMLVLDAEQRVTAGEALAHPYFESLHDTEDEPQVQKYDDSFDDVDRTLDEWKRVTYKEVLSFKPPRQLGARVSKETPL
Source text: as §2

[21] = molecular target: T21, ABL2 (Homo sapiens, UniProt P42684); experiment: KINOMEscan 1 μM, ABL2; type: binding; details: 1000 nM; Entrez ABL2; read-out: Percent Control
T21 construct: purchased Eurofins DiscoverX KINOMEscan
T21 sequence (P42684 whole entry): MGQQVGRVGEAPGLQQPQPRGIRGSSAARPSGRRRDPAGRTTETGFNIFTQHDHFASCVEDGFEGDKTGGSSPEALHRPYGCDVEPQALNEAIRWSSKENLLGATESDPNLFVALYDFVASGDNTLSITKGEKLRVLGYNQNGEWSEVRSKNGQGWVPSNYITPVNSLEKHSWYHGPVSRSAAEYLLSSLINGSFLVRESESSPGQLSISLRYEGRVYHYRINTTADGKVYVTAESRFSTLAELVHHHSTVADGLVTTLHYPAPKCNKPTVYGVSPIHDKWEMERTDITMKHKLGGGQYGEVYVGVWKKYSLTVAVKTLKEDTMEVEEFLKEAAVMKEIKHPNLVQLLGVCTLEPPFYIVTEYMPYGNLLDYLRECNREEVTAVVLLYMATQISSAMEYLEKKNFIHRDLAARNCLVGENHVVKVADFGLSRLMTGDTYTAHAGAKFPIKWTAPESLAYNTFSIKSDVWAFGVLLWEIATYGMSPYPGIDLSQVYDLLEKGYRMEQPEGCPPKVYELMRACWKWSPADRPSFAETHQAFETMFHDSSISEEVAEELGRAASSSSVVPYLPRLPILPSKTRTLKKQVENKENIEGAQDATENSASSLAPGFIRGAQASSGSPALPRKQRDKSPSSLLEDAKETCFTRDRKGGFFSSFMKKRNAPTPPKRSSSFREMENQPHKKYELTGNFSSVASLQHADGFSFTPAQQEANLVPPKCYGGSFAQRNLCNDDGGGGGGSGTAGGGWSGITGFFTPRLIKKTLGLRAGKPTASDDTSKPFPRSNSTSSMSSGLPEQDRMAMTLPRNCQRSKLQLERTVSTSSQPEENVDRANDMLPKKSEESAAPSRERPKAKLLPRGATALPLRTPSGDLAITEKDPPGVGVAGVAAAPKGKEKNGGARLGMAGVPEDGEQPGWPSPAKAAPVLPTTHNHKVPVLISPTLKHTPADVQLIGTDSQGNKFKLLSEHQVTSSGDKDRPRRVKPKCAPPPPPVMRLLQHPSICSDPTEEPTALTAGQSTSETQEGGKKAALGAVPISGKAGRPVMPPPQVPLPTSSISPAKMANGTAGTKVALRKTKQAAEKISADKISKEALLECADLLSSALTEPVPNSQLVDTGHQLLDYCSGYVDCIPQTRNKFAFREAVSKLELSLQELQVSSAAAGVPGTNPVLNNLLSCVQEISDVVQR
Source text: as §2

[22] = molecular target: T22, CSNK2A1 (Homo sapiens, UniProt P68400); experiment: KINOMEscan 1 μM, CSNK2A1; type: binding; details: 1000 nM; Entrez CSNK2A1; read-out: Percent Control
T22 construct: purchased Eurofins DiscoverX KINOMEscan
T22 sequence (P68400 whole entry): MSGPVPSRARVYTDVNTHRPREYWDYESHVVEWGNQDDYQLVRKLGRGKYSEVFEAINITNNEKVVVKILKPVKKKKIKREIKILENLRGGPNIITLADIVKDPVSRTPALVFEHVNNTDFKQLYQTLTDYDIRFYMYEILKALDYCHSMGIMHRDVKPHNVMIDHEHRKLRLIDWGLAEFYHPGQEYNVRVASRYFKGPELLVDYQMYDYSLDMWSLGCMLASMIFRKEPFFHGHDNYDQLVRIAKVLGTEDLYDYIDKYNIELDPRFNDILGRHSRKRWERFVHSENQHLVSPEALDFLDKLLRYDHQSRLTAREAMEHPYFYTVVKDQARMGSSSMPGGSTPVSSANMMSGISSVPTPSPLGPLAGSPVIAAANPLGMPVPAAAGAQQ
Source text: as §2

[23] = molecular target: T23, ALK(L1196M) (Homo sapiens, UniProt Q9UM73, L1196M); experiment: KINOMEscan 1 μM, ALK(L1196M); type: binding; details: 1000 nM; Entrez ALK; read-out: Percent Control
T23 construct: purchased Eurofins DiscoverX KINOMEscan
Source text: as §2

[24] = molecular target: T24, ADCK3 (Homo sapiens, UniProt Q8NI60); experiment: KINOMEscan 1 μM, ADCK3; type: binding; details: 1000 nM; Entrez CABC1; read-out: Percent Control
T24 construct: purchased Eurofins DiscoverX KINOMEscan
Source text: as §2

[25] = molecular target: T25, CDC2L5 (Homo sapiens, UniProt Q14004); experiment: KINOMEscan 1 μM, CDC2L5; type: binding; details: 1000 nM; Entrez CDK13; read-out: Percent Control
T25 construct: purchased Eurofins DiscoverX KINOMEscan
Source text: as §2

[26] = molecular target: T26, ERBB2 (Homo sapiens, UniProt P04626); experiment: KINOMEscan 1 μM, ERBB2; type: binding; details: 1000 nM; Entrez ERBB2; read-out: Percent Control
T26 construct: purchased Eurofins DiscoverX KINOMEscan
Source text: as §2

[27] = molecular target: T27, JNK2 (Homo sapiens, UniProt P45984); experiment: KINOMEscan 1 μM, JNK2; type: binding; details: 1000 nM; Entrez MAPK9; read-out: Percent Control
T27 construct: purchased Eurofins DiscoverX KINOMEscan
Source text: as §2

[28] = molecular target: T28, MKK7 (Homo sapiens, UniProt O14733); experiment: KINOMEscan 1 μM, MKK7; type: binding; details: 1000 nM; Entrez MAP2K7; read-out: Percent Control
T28 construct: purchased Eurofins DiscoverX KINOMEscan
Source text: as §2

[29] = molecular target: T29, MST4 (Homo sapiens, UniProt Q9P289); experiment: KINOMEscan 1 μM, MST4; type: binding; details: 1000 nM; Entrez MST4; read-out: Percent Control
T29 construct: purchased Eurofins DiscoverX KINOMEscan
Source text: as §2

[30] = molecular target: T30, PFCDPK1(P.falciparum) (Plasmodium falciparum, UniProt P62344); experiment: DiscoverX KINOMEscan binding assay at 1 μM, PFCDPK1(P.falciparum); details: PFCDPK1(P.falciparum) (CDPK1); Compound Concentration 1000 nM; read-out: Percent Control
T30 construct: purchased Eurofins DiscoverX KINOMEscan
T30 sequence (P62344 whole entry): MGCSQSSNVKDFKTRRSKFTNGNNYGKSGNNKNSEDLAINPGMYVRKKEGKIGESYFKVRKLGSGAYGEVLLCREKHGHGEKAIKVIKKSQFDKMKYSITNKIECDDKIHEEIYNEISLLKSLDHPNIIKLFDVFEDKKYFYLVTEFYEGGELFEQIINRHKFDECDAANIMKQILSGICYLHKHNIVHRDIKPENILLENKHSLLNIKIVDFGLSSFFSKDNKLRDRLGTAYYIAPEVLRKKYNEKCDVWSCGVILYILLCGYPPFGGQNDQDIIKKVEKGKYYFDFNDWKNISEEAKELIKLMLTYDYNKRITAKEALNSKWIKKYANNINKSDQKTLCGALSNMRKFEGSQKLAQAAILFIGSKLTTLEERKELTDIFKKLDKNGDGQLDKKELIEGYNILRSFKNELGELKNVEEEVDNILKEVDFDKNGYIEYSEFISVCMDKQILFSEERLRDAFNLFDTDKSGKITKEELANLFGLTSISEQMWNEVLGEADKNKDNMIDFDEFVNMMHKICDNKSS
Source text: as §2

[31] = molecular target: T31, PLK4 (Homo sapiens, UniProt O00444); experiment: DiscoverX KINOMEscan binding assay at 1 μM, PLK4; details: Compound Concentration 1000 nM, read-out: Percent Control
T31 construct: purchased Eurofins DiscoverX KINOMEscan
Source text: as §2

[32] = molecular target: T32, TESK1 (Homo sapiens, UniProt Q15569); experiment: DiscoverX KINOMEscan binding assay at 1 μM, TESK1; details: Compound Concentration 1000 nM, read-out: Percent Control
T32 construct: purchased Eurofins DiscoverX KINOMEscan
Source text: as §2

[33] = molecular target: T33, VEGFR2 (Homo sapiens, UniProt P35968); experiment: DiscoverX KINOMEscan binding assay at 1 μM, VEGFR2; details: VEGFR2 (KDR); Compound Concentration 1000 nM; read-out: Percent Control
T33 construct: purchased Eurofins DiscoverX KINOMEscan
Source text: as §2

T1 sequence (P10721 26-976 D816V): as the sequence (P10721 26-976 V559D/T670I) above, with D534V, I645T, D791V counted along it

## O=C(O)c1ccc(-c2coc3ncc(-c4ccccc4)cc23)cc1Cl [SGC-CAMKK2-1N (UNC-YL-83)]
[1]
  remaining binding at 1 µM: 32%
[2]
  remaining binding at 1 µM: 53%
[3]
  remaining binding at 1 µM: 61%
[4]
  remaining binding at 1 µM: 62%
[5]
  remaining binding at 1 µM: 66%
[6]
  remaining binding at 1 µM: 80%
[7]
  remaining binding at 1 µM: 81%
[8]
  remaining binding at 1 µM: 81%
[9]
  remaining binding at 1 µM: 81%
[10]
  remaining binding at 1 µM: 84%
[11]
  remaining binding at 1 µM: 85%
[12]
  remaining binding at 1 µM: 88%
[13]
  remaining binding at 1 µM: 93%
[14]
  remaining binding at 1 µM: 94%
[15]
  remaining binding at 1 µM: 100%
[16]
  remaining binding at 1 µM: 100%

## Cc1cccc(-c2cnc3occ(-c4ccc(C(=O)O)c(C5CCCC5)c4)c3c2)c1 [SGC-CAMKK2-1 (YL-36)]
[17]
  remaining binding at 1 µM: 47%
[18]
  remaining binding at 1 µM: 76%
[19]
  remaining binding at 1 µM: 77%
[20]
  remaining binding at 1 µM: 82%
[21]
  remaining binding at 1 µM: 92%
[22]
  remaining binding at 1 µM: 94%
[23]
  remaining binding at 1 µM: 96%
[24]
  remaining binding at 1 µM: 100%
[25]
  remaining binding at 1 µM: 100%
[26]
  remaining binding at 1 µM: 100%
[27]
  remaining binding at 1 µM: 100%
[28]
  remaining binding at 1 µM: 100%
[29]
  remaining binding at 1 µM: 100%
[30]
  remaining binding at 1 µM: 100%
[31]
  remaining binding at 1 µM: 100%
[32]
  remaining binding at 1 µM: 100%
[33]
  remaining binding at 1 µM: 100%

Reference: paper PMC9856672, “SGC-CAMKK2-1: A Chemical Probe for CAMKK2” (Cells, 2023)
